{"source": "patent US10052320B2", "about": "“Substituted quinoxalines as FGFR kinase inhibitors” (ASTEX THERAPEUTICS LIMITED, priority 2011, dated 2018)", "format_in_all_cases": "cell-based", "key": {"[1]": {"target": "Ba/F3-FGFR3-transfected cells (Homo sapiens, UniProt P22607)", "sequence (P22607 whole entry, change not shown)": "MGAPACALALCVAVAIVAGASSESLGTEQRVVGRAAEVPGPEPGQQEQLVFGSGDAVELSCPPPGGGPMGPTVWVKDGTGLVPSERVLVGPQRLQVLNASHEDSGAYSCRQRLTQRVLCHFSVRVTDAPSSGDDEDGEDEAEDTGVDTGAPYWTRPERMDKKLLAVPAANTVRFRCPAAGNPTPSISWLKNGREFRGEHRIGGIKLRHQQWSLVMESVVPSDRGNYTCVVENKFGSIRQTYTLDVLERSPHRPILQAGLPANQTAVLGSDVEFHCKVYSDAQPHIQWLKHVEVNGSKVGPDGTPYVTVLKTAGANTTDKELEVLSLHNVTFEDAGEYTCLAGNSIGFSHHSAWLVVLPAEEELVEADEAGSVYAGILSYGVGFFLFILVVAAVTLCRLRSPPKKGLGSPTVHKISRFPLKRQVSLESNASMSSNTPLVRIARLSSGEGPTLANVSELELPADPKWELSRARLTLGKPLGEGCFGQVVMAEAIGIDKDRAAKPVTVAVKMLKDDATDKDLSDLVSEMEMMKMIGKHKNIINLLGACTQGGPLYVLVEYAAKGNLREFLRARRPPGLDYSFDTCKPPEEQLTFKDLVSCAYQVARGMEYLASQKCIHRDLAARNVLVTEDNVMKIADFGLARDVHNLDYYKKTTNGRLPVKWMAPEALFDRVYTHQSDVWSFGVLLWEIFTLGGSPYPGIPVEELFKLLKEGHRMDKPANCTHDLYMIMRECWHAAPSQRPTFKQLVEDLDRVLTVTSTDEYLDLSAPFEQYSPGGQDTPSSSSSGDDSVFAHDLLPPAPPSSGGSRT", "test": "Ba/F3-FGFR3 (minus IL3) cellular proliferation assay, Alamar Blue", "conditions": "for BAF3-FGFR 3 (MIN IL3) 96 well pIC50: minus IL3, 96 well; for BAF3-FGFR 3 (MIN IL3) 384 well pIC50: minus IL3, 384 well", "method_in_brief": "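Cells are seeded with compound dilutions, incubated 24 h at 37 °C under 5% CO2, then given resazurin-based Alamar Blue for a further 4 h before fluorescence is measured. The plus-IL3 counterscreen repeats this with 10 ng/ml murine IL3.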"}, "[2]": {"target": "T1, Ba/F3-Flt3-transfected cells (Homo sapiens, UniProt P36888, cells depend on it, form not given)", "T1 sequence (P36888 1-993)": "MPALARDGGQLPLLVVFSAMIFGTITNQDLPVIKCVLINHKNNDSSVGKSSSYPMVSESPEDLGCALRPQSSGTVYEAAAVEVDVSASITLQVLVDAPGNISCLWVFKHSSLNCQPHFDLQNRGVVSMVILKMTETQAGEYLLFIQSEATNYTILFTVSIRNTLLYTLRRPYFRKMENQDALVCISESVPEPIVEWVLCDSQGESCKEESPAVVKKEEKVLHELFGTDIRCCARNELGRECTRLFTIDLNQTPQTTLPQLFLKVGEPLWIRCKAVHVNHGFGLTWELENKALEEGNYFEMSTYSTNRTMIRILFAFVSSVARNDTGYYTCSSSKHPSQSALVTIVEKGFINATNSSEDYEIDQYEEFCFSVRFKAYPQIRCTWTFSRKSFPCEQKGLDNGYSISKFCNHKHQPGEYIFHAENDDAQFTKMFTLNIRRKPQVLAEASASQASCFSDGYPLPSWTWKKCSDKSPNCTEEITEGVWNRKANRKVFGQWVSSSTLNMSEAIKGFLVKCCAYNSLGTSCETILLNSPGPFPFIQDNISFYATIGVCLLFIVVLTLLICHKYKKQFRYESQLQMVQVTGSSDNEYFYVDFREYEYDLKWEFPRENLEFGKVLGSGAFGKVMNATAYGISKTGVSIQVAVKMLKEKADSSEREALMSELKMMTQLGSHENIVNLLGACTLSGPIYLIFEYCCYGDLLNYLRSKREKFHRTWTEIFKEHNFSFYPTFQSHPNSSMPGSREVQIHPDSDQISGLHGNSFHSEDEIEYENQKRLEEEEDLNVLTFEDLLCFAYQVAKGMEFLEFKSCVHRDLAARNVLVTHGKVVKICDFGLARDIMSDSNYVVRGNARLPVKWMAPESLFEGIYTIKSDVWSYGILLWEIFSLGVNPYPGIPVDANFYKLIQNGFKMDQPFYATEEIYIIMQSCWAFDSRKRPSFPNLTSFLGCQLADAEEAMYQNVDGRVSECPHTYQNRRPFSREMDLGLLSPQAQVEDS", "test": "Ba/F3-Flt3 (minus IL3) cellular proliferation assay, Alamar Blue", "conditions": "minus IL3"}, "[3]": {"target": "Ba/F3-FGFR4-transfected cells (Homo sapiens, UniProt P22455)", "sequence (P22455 whole entry, change not shown)": "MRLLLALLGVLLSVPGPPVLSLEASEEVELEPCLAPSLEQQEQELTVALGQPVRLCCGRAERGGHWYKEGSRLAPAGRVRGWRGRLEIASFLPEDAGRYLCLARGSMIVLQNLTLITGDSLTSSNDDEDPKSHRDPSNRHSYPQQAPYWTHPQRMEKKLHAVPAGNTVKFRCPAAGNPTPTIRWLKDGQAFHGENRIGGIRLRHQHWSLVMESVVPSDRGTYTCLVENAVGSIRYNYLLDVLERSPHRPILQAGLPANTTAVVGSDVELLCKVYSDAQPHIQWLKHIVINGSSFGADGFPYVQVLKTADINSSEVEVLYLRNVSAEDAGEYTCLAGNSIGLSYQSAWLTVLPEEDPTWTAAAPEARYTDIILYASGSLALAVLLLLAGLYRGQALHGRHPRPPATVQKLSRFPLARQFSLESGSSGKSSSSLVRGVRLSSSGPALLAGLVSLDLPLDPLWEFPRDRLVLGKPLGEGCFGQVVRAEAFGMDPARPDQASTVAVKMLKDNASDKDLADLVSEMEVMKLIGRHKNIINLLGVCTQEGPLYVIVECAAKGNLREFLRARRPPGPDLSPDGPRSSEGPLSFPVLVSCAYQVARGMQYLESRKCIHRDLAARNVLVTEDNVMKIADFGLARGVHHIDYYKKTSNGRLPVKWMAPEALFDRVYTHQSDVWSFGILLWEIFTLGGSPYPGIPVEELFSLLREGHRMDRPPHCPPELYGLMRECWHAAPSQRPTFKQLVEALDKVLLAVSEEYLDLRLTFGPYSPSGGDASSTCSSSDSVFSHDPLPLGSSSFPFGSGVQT", "test": "Ba/F3-FGFR4 cellular proliferation assay, Alamar Blue", "method_in_brief": "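Alamar Blue fluorescence (540/590 nm, 4 h development) measured growth of FGFR4-transfected Ba/F3 cells after 24 h compound treatment at 37° C. Cells were seeded at 20000/well in RPMI-1640, 10% FBS.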"}}, "data": [{"compound": "COc1cc(OC)cc(N(CC2CC2)c2ccc3ncc(-c4cnco4)nc3c2)c1", "note": "[Compound 55]", "values": [{"measurement": "BAF3-FGFR 3 (MIN IL3) 96 well pIC50", "setting": "[1]", "value": 5.65}, {"measurement": "BAF3-FGFR 3 (MIN IL3) 384 well pIC50", "setting": "[1]", "value": "~5.25"}, {"measurement": "BAF3-FLT3 (MIN IL3) 96 well pIC50", "setting": "[2]", "value": "<5"}, {"measurement": "BAF3-FLT3 (MIN IL3) 384 well pIC50", "setting": "[2]", "value": "<5"}, {"measurement": "BAF3-FGFR4 pIC50", "setting": "[3]", "value": "<5"}]}, {"compound": "COc1cc(OC)cc(N(CC2CC2)c2ccc3ncc(-c4ccn[nH]4)nc3c2)c1", "note": "[Compound 58]", "values": [{"measurement": "BAF3-FGFR 3 (MIN IL3) 96 well pIC50", "setting": "[1]", "value": 5.56}, {"measurement": "BAF3-FLT3 (MIN IL3) 96 well pIC50", "setting": "[2]", "value": "<5"}, {"measurement": "BAF3-FLT3 (MIN IL3) 384 well pIC50", "setting": "[2]", "value": "<5"}, {"measurement": "BAF3-FGFR4 pIC50", "setting": "[3]", "value": "<5"}]}, {"compound": "COc1cc(OC)cc(N(CC2CC2)c2ccc3ncc(-c4nccn4C)nc3c2)c1", "note": "[Compound 60]", "values": [{"measurement": "BAF3-FGFR 3 (MIN IL3) 96 well pIC50", "setting": "[1]", "value": "<5"}, {"measurement": "BAF3-FGFR 3 (MIN IL3) 384 well pIC50", "setting": "[1]", "value": "<5"}, {"measurement": "BAF3-FLT3 (MIN IL3) 96 well pIC50", "setting": "[2]", "value": "<5"}, {"measurement": "BAF3-FLT3 (MIN IL3) 384 well pIC50", "setting": "[2]", "value": "<5"}, {"measurement": "BAF3-FGFR4 pIC50", "setting": "[3]", "value": "<5"}]}, {"compound": "COc1cc(OC)cc(N(CC2CC2)c2ccc3ncc(-n4nccc4C)nc3c2)c1", "note": "[Compound 62]", "values": [{"measurement": "BAF3-FGFR 3 (MIN IL3) 96 well pIC50", "setting": "[1]", "value": "<5"}, {"measurement": "BAF3-FGFR 3 (MIN IL3) 384 well pIC50", "setting": "[1]", "value": "<5"}, {"measurement": "BAF3-FLT3 (MIN IL3) 96 well pIC50", "setting": "[2]", "value": "<5"}, {"measurement": "BAF3-FLT3 (MIN IL3) 384 well pIC50", "setting": "[2]", "value": "<5"}, {"measurement": "BAF3-FGFR4 pIC50", "setting": "[3]", "value": "<5"}]}, {"compound": "CCOC(=O)c1ncn(-c2cnc3ccc(N(CC4CC4)c4cc(OC)cc(OC)c4)cc3n2)c1C", "note": "[Compound 65]", "values": [{"measurement": "BAF3-FGFR 3 (MIN IL3) 96 well pIC50", "setting": "[1]", "value": 5.08}, {"measurement": "BAF3-FGFR 3 (MIN IL3) 384 well pIC50", "setting": "[1]", "value": "<5"}, {"measurement": "BAF3-FLT3 (MIN IL3) 96 well pIC50", "setting": "[2]", "value": "<5"}, {"measurement": "BAF3-FLT3 (MIN IL3) 384 well pIC50", "setting": "[2]", "value": "<5"}, {"measurement": "BAF3-FGFR4 pIC50", "setting": "[3]", "value": "<5"}]}, {"compound": "COc1cc(OC)cc(N(CC2CC2)c2ccc3ncc(-c4cn[nH]n4)nc3c2)c1", "note": "[Compound 69]", "values": [{"measurement": "BAF3-FGFR 3 (MIN IL3) 96 well pIC50", "setting": "[1]", "value": "<5"}, {"measurement": "BAF3-FGFR 3 (MIN IL3) 384 well pIC50", "setting": "[1]", "value": "<5"}, {"measurement": "BAF3-FLT3 (MIN IL3) 96 well pIC50", "setting": "[2]", "value": "<5"}, {"measurement": "BAF3-FLT3 (MIN IL3) 384 well pIC50", "setting": "[2]", "value": "<5"}, {"measurement": "BAF3-FGFR4 pIC50", "setting": "[3]", "value": "<5"}]}, {"compound": "COc1cc(OC)cc(N(CC2CC2)c2ccc3ncc(-c4cnnn4C)nc3c2)c1", "note": "[Compound 72]", "values": [{"measurement": "BAF3-FGFR 3 (MIN IL3) 96 well pIC50", "setting": "[1]", "value": "<5"}, {"measurement": "BAF3-FGFR 3 (MIN IL3) 384 well pIC50", "setting": "[1]", "value": "<5"}, {"measurement": "BAF3-FLT3 (MIN IL3) 96 well pIC50", "setting": "[2]", "value": "<5"}, {"measurement": "BAF3-FLT3 (MIN IL3) 384 well pIC50", "setting": "[2]", "value": 5.09}, {"measurement": "BAF3-FGFR4 pIC50", "setting": "[3]", "value": "<5"}]}, {"compound": "COc1cc(OC)cc(N(CC(O)CO)c2ccc3ncc(-c4ccc(N)nc4)nc3c2)c1", "note": "(stereo not drawn) [Compound 74]", "values": [{"measurement": "BAF3-FGFR 3 (MIN IL3) 384 well pIC50", "setting": "[1]", "value": 6.69}, {"measurement": "BAF3-FLT3 (MIN IL3) 384 well pIC50", "setting": "[2]", "value": "<5"}, {"measurement": "BAF3-FGFR4 pIC50", "setting": "[3]", "value": 6.1}]}, {"compound": "CNC(=O)OCCN(c1cc(OC)cc(OC)c1)c1ccc2ncc(-c3ccc(NC(=O)OC(C)(C)C)nc3)nc2c1", "note": "[Compound 80]", "values": [{"measurement": "BAF3-FGFR 3 (MIN IL3) 384 well pIC50", "setting": "[1]", "value": 5.09}, {"measurement": "BAF3-FLT3 (MIN IL3) 384 well pIC50", "setting": "[2]", "value": "<5"}, {"measurement": "BAF3-FGFR4 pIC50", "setting": "[3]", "value": "<5"}]}, {"compound": "CNCCN(c1cc(OC)cc(OC)c1)c1ccc2ncc(-c3ccc(NC(=O)OC(C)(C)C)nc3)nc2c1", "note": "[Compound 81]", "values": [{"measurement": "BAF3-FGFR 3 (MIN IL3) 384 well pIC50", "setting": "[1]", "value": 5.91}, {"measurement": "BAF3-FLT3 (MIN IL3) 384 well pIC50", "setting": "[2]", "value": 5.76}, {"measurement": "BAF3-FGFR4 pIC50", "setting": "[3]", "value": 5.9}]}, {"compound": "COc1cc(OC)cc(N(CC2CC2)c2ccc3ncc(-c4nnn(C)n4)nc3c2)c1", "note": "[Compound 82]", "values": [{"measurement": "BAF3-FGFR 3 (MIN IL3) 96 well pIC50", "setting": "[1]", "value": 5.18}, {"measurement": "BAF3-FGFR 3 (MIN IL3) 384 well pIC50", "setting": "[1]", "value": "<5"}, {"measurement": "BAF3-FLT3 (MIN IL3) 96 well pIC50", "setting": "[2]", "value": "<5"}, {"measurement": "BAF3-FLT3 (MIN IL3) 384 well pIC50", "setting": "[2]", "value": "<5"}, {"measurement": "BAF3-FGFR4 pIC50", "setting": "[3]", "value": "<5"}]}, {"compound": "COc1cc(OC)cc(N(CC2CC2)c2ccc3ncc(-c4nnnn4C)nc3c2)c1", "note": "[Compound 83]", "values": [{"measurement": "BAF3-FGFR 3 (MIN IL3) 96 well pIC50", "setting": "[1]", "value": "<5"}, {"measurement": "BAF3-FGFR 3 (MIN IL3) 384 well pIC50", "setting": "[1]", "value": "<5"}, {"measurement": "BAF3-FLT3 (MIN IL3) 96 well pIC50", "setting": "[2]", "value": "<5"}, {"measurement": "BAF3-FLT3 (MIN IL3) 384 well pIC50", "setting": "[2]", "value": "<5"}, {"measurement": "BAF3-FGFR4 pIC50", "setting": "[3]", "value": "<5"}]}, {"compound": "COc1cc(OC)cc(N(CC2CC2)c2ccc3ncc(C(=O)NCCN4CCOCC4)nc3c2)c1", "note": "[Compound 96]", "values": [{"measurement": "BAF3-FGFR 3 (MIN IL3) 96 well pIC50", "setting": "[1]", "value": 5.18}, {"measurement": "BAF3-FGFR 3 (MIN IL3) 384 well pIC50", "setting": "[1]", "value": "<5"}, {"measurement": "BAF3-FLT3 (MIN IL3) 96 well pIC50", "setting": "[2]", "value": "<5"}, {"measurement": "BAF3-FLT3 (MIN IL3) 384 well pIC50", "setting": "[2]", "value": "<5"}, {"measurement": "BAF3-FGFR4 pIC50", "setting": "[3]", "value": "<5"}]}, {"compound": "COc1cc(OC)cc(N(CC2CC2)c2ccc3ncc(-c4nccs4)nc3c2)c1", "note": "[Compound 97]", "values": [{"measurement": "BAF3-FGFR 3 (MIN IL3) 96 well pIC50", "setting": "[1]", "value": "<5"}, {"measurement": "BAF3-FGFR 3 (MIN IL3) 384 well pIC50", "setting": "[1]", "value": "<5"}, {"measurement": "BAF3-FLT3 (MIN IL3) 96 well pIC50", "setting": "[2]", "value": "<5"}, {"measurement": "BAF3-FLT3 (MIN IL3) 384 well pIC50", "setting": "[2]", "value": "<5"}, {"measurement": "BAF3-FGFR4 pIC50", "setting": "[3]", "value": "<5"}]}]}
